# Data reported in patent US20240343733A1, “COMPOUNDS FOR TARGETING DEGRADATION OF IRAK4 PROTEINS” (BIOGEN MA INC., priority 2021, published 2024).
# Target: T1, IRAK4 (Homo sapiens, UniProt Q9NWZ3)
# T1 construct: 293Tcells expressing HiBiT-tagged IRAK4 were then added into 384-well plates
# T1 sequence (Q9NWZ3 1-460): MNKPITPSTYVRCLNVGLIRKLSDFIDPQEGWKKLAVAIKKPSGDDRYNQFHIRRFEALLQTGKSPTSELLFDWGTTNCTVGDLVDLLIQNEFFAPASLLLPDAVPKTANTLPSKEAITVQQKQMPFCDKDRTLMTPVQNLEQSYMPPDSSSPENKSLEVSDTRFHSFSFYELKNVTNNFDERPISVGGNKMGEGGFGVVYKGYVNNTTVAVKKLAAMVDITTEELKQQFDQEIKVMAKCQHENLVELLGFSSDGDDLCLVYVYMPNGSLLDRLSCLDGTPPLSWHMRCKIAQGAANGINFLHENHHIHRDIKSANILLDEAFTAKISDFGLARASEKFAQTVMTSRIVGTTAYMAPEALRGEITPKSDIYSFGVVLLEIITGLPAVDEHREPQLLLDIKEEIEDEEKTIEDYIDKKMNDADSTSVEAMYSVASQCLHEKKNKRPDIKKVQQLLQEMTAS
# Experiment: IRAK4 Degradation Assay, HiBiT Method
# Assay type: cell-based
# Settings: 293T cells expressing HiBiT-tagged IRAK4, 6 hours
# Method: Assay 1. IRAK4 Degradation Assay, HiBiT Method
# Selected compounds were tested in an IRAK4 degradation assay using the HiBiT Method.
# Phenol red-free Dulbecco's modified Eagle medium (DMEM) and fetal bovine serum (FBS) were purchased from Gibco (Grand Island, NY, USA). The Nano-Glo® HiBiT Lytic Assay System was purchased from Promega (Madison, WI, USA). Cell culture flasks and 384-well microplates were acquired from VWR (Radnor, PA, USA). The 293Tcell line was engineered by knocking-in a HiBiT fusion tag into the C-terminal of the IRAK4 gene in 293T cells (Synthego, Redwood City, CA, USA).
# IRAK4 degradation was measured via the quantification of luminescent signals using the Nano-Glo® HiBiT Lytic Assay kit. Test compounds were added to 384-well plates in duplicate using an 11-point half-log dilution series, with the highest dose set at […]. 293Tcells expressing HiBiT-tagged IRAK4 were then added into 384-well plates at a cell density of 10,000 cells per well. The plates were kept at 37° C. with 5% CO2 for 6 hours. Cells that were treated only with DMSO served as the negative control; wells that contained only assay media served as the background control. After the 6-hour incubation, Nano-Glo® HiBiT Lytic Assay reagents were added to the cells. Luminescence was acquired using an EnVision™ Multilabel Reader (PerkinElmer, Santa Clara, CA, USA).
row,Compound,DC50
1,"CC(C)Oc1cc2nn(C3CCN(C(=O)CC4(O)CCN(c5ccc(NC6CCC(=O)NC6=O)cc5)CC4)CC3)cc2cc1C(=O)Nc1cccc(C(F)F)n1 (centres unmarked) [Example 65, N-(6-(difluoromethyl)pyridin-2-yl)-2-(1-(2-(1-(4-((2,6-dioxopiperidin-3-yl)amino)phenyl)-4-hydroxypiperidin-4-yl)acetyl)piperidin-4-yl)-6-isopropoxy-2H-indazole-5-carboxamide]",10 to 100 nM
2,"CC(C)Oc1cc2nc(C3CCN(C(=O)CC4CCN(c5ccc6c([C@@H]7CCC(=O)NC7=O)nn(C)c6c5)CC4)CC3)cn2cc1C(=O)Nc1cccc(C(F)F)n1 [Example 92, (S)—N-(6-(difluoromethyl)pyridin-2-yl)-2-(1-(2-(1-(3-(2,6-dioxopiperidin-3-yl)-1-methyl-1H-indazol-6-yl)piperidin-4-yl)acetyl)piperidin-4-yl)-7-isopropoxyimidazo[1,2-a]pyridine-6-carboxamide]",10 to 100 nM
3,CC(C)Oc1nc2nc(C3CCN(C(=O)N(C)C4CCN(c5ncc(C6CCC(=O)NC6=O)cc5F)CC4)CC3)cn2cc1C(=O)Nc1cccn([C@H]2C[C@H]2F)c1=O (some centres unmarked) [Example 193],10 to 100 nM
4,"CO[C@H]1CN(C[C@H]2CC[C@H](n3cc4cc(C(=O)Nc5cccn([C@H]6C[C@H]6F)c5=O)c(OC(C)C)cc4n3)CC2)CC[C@H]1c1ccc2c(N3CCC(=O)NC3=O)nn(C)c2c1 [Example 134, 2-((1R,4S)-4-(((3R,4S)-4-(3-(2,4-dioxotetrahydropyrimidin-1(2H)-yl)-1-methyl-1H-indazol-6-yl)-3-methoxypiperidin-1-yl)methyl)cyclohexyl)-N-(1-((1S,2R)-2-fluorocyclopropyl)-2-oxo-1,2-dihydropyridin-3-yl)-6-isopropoxy-2H-indazole-5-carboxamide]",< 10 nM

# The remaining lines, values ahead:
row,DC50,Compound
1,< 10 nM,"CC(C)Oc1cc2nn([C@H]3CC[C@H](CN4CCN(c5ccn6c(N7CCC(=O)NC7=O)cnc6c5)CC4)CC3)cc2cc1C(=O)Nc1cccn([C@H]2C[C@H]2F)c1=O [Example 146, 2-((1r,4S)-4-((4-(3-(2,4-dioxotetrahydropyrimidin-1(2H)-yl)imidazo[1,2-a]pyridin-7-yl)piperazin-1-yl)methyl)cyclohexyl)-N-(1-((1S,2R)-2-fluorocyclopropyl)-2-oxo-1,2-dihydropyridin-3-yl)-6-isopropoxy-2H-indazole-5-carboxamide]"
2,< 10 nM,"CO[C@H]1CN(C[C@H]2CC[C@H](n3cc4cc(C(=O)Nc5cccn(C6CC6)c5=O)c(OC(C)C)cc4n3)CC2)CC[C@H]1c1ccc2c(N3CCC(=O)NC3=O)nn(C)c2c1 [Example 140, N-(1-cyclopropyl-2-oxo-1,2-dihydropyridin-3-yl)-2-((1R,4r)-4-(((3R,4S)-4-(3-(2,4-dioxotetrahydropyrimidin-1(2H)-yl)-1-methyl-1H-indazol-6-yl)-3-methoxypiperidin-1-yl)methyl)cyclohexyl)-6-isopropoxy-2H-indazole-5-carboxamide]"
3,< 10 nM,"CC(C)Oc1cc2nn([C@H]3CC[C@H](CN4CCN(c5ccc6c(N7CCC(=O)NC7=O)cnn6c5)CC4)CC3)cc2cc1C(=O)Nc1cccn([C@H]2C[C@H]2F)c1=O [Example 145, 2-((1r,4S)-4-((4-(3-(2,4-dioxotetrahydropyrimidin-1(2H)-yl)pyrazolo[1,5-a]pyridin-6-yl)piperazin-1-yl)methyl)cyclohexyl)-N-(1-((1S,2R)-2-fluorocyclopropyl)-2-oxo-1,2-dihydropyridin-3-yl)-6-isopropoxy-2H-indazole-5-carboxamide]"
4,< 10 nM,"CC(C)Oc1cc2nn([C@H]3CC[C@H](CN4CCOC[C@@H]4Cc4ccc(OC5CCC(=O)NC5=O)cc4)CC3)cc2cc1C(=O)Nc1cccn([C@H]2C[C@H]2F)c1=O (stereo partly drawn) [Example 135, 2-((1S,4S)-4-(((3S)-3-(4-((2,6-dioxopiperidin-3-yl)oxy)benzyl)morpholino)methyl)cyclohexyl)-N-(1-((1S,2R)-2-fluorocyclopropyl)-2-oxo-1,2-dihydropyridin-3-yl)-6-isopropoxy-2H-indazole-5-carboxamide]"
